Data on two compounds can be found in patent US20080096905A1, “Process For Preparing Pyrido[2,3-D]Pyrimidin-7-One And 3,4-Dihydropyrimido{4,5-D}Pyrimidin-2(1H)-One Derivatives” (Glaxo Group Limited, priority 2005, published 2008).

By melting point is commonly meant the temperature, or range, at which the solid turns liquid.

Regarding `Cc1c(F)cc(C(=O)NC2CC2)cc1-c1nc(NC(CO)CO)nc2c1ccc(=O)n2-c1c(F)cccc1F` [Example 49, N-cyclopropyl-3-(8-(2,6-difluorophenyl)-2-{[2-hydroxy-1-(hydroxymethyl)ethyl]amino}-7-oxo-7,8-dihydropyrido[2,3-d]pyrimidin-4-yl)-5-fluoro-4-methylbenzamide], the melting point was 214.2 to 217.5 °C.

On to `CSc1nc(-c2cc(C(=O)N(C)C)ccc2C)c2c(n1)N(c1c(F)cccc1F)C(=O)NC2` [Example 73, 3-[8-(2,6-difluorophenyl)-2-(methylthio)-7-oxo-5,6,7,8-tetrahydropyrimido[4,5-d]pyrimidin-4-yl]-N,N,4-trimethylbenzamide], for which the melting point was in the range of 144 to 147 °C.
